Experimental data taken from US10645928B2, “Pesticidally active polycyclic derivatives with sulfur containing substituents” (Syngenta Participations AG, priority 2014, dated 2020).

What was measured:
Format in all cases: in vivo
[1] = test system: Spodoptera littoralis (Egyptian Cotton Leaf Worm); assay: Example B14: Spodoptera littoralis, sprayed cotton leaf discs, anti-feeding effect; conditions: foliar, 72 h, application rate of 200 ppm, L1 larvae, 3 days after infestation
Experimental: Cotton leaf discs were placed onto agar in 24-well microtiter plates and sprayed with aqueous test solutions prepared from 10,000 ppm DMSO stock solutions. After drying the leaf discs were infested with five L1 larvae. The samples were assessed for anti-feeding effect in comparison to untreated samples 3 days after infestation. Control of Spodoptera littoralis by a test sample is given when the anti-feedant effect is higher than the untreated sample.

[2] = test system: Aedes aegypti (Yellow Fever Mosquito); assay: Example B23: Aedes aegypti, dry deposits in 12 well tissue culture plates, control; conditions: application rate of 200 ppm in ethanol, adult females, after 48 h and/or 24 h
Experimental: Test solutions, at an application rate of 200 ppm in ethanol, were applied to 12 well tissue culture plates. Once the deposits were dry, five, two to five day old adult female Aedes aegypti were added to each well, and sustained with a 10% sucrose solution in a cotton wool plug. Assessment of knockdown was made one hour after introduction, and mortality was assessed at 24 and 48 hours after introduction.

[3] = test system: Diabrotica balteata (Corn Root Worm); assay: Example B2: Diabrotica balteata, sprayed maize sprouts, mortality and growth inhibition; conditions: 96 h, application rate of 200 ppm, L2 larvae, 4 days after infestation, read-out: effect in at least one of the two categories (mortality or growth inhibition)
Experimental: (§1) Maize sprouts placed onto an agar layer in 24-well microtiter plates were treated with aqueous test solutions prepared from 10,000 ppm DMSO stock solutions by spraying. After drying, the plates were infested with L2 larvae (6 to 10 per well). The samples were assessed for mortality and growth inhibition in comparison to untreated samples 4 days after infestation.

[4] = test system: Plutella xylostella (Diamond Back Moth); assay: Example B13: Plutella xylostella, treated artificial diet, mortality and growth inhibition; conditions: 120 h, application rate of 200 ppm, L2 larvae, 5 days after infestation, read-out: effect in at least one of the two categories (mortality or growth inhibition)
Experimental: (§2) 24-well microtiter plates with artificial diet were treated with aqueous test solutions prepared from 10,000 ppm DMSO stock solutions by pipetting. After drying, the plates were infested with L2 larvae (10 to 15 per well). The samples were assessed for mortality and growth inhibition in comparison to untreated samples 5 days after infestation.

[5] = test system: Spodoptera littoralis (Egyptian Cotton Leaf Worm); assay: Example B17: Spodoptera littoralis, sprayed cotton leaf discs, mortality, anti-feeding effect and growth inhibition; conditions: foliar, 72 h, application rate of 200 ppm, L1 larvae, 3 days after infestation, read-out: control (at least one of mortality, anti-feedant effect, growth inhibition)
Experimental: Cotton leaf discs were placed onto agar in 24-well microtiter plates and sprayed with aqueous test solutions prepared from 10,000 ppm DMSO stock solutions. After drying the leaf discs were infested with five L1 larvae. The samples were assessed for mortality, anti-feeding effect, and growth inhibition in comparison to untreated samples 3 days after infestation. Control of Spodoptera littoralis by a test sample is given when at least one of the categories mortality, anti-feedant effect, and growth inhibition is higher than the untreated sample.

[6] = test system: Diabrotica balteata (Corn Root Worm); assay: Example B3: Diabrotica balteata, sprayed maize sprouts, mortality; conditions: 96 h, application rate of 200 ppm, L2 larvae, 4 days after infestation
Experimental: as §1, with “mortality” for “mortality and growth inhibition in comparison to untreated samples”

[7] = test system: Plutella xylostella (Diamond Back Moth); assay: Example B12: Plutella xylostella, treated artificial diet, mortality; conditions: 120 h, application rate of 200 ppm, L2 larvae, 5 days after infestation
Experimental: 24-well microtiter plates with artificial diet were treated with aqueous test solutions prepared from 10,000 ppm DMSO stock solutions by pipetting. After drying, the plates were infested with L2 larvae (10 to 15 per well). The samples were assessed for mortality 5 days after infestation.

[8] = test system: Spodoptera littoralis (Egyptian Cotton Leaf Worm); assay: Example B16: Spodoptera littoralis, sprayed cotton leaf discs, mortality; conditions: foliar, 72 h, application rate of 200 ppm, L1 larvae, 3 days after infestation
Experimental: Cotton leaf discs were placed onto agar in 24-well microtiter plates and sprayed with aqueous test solutions prepared from 10,000 ppm DMSO stock solutions. After drying the leaf discs were infested with five L1 larvae. The samples were assessed for mortality 3 days after infestation.

[9] = test system: Spodoptera littoralis (Egyptian Cotton Leaf Worm); assay: Example B19: Spodoptera littoralis, compound in agar absorbed by lettuce roots, anti-feedant effect; conditions: 144 h, test rate of 12.5 ppm, uptake by lettuce roots, Spodoptera eggs, 6 days after infestation, read-out: anti-feeding
Excerpt: (§3) Test compounds were applied by pipette prepared from 10,000 ppm DMSO stock solutions into 24-well plates and mixed with agar. Lettuce seeds were placed onto the agar and the multi well plate was closed by another plate which contained also agar. After 7 days the compound was absorbed by the roots and the lettuce grew into the lid plate. The lettuce leaves were then cut off into the lid plate. Spodoptera eggs were pipetted through a plastic stencil onto a humid gel blotting paper and the lid plate was closed with it. The samples were assessed for anti-feedant effect in comparison to untreated samples 6 days after infestation.

[10] = test system: Euschistus heros (Neotropical Brown Stink Bug); assay: Example B5: Euschistus heros, sprayed soybean leaves, mortality; conditions: 120 h, application rate of 200 ppm, N2 nymphs, 5 days after infestation
Experimental: (§4) Soybean leaves on agar in 24-well microtiter plates were sprayed with aqueous test solutions prepared from 10,000 ppm DMSO stock solutions. After drying the leaves were infested with N2 nymphs. The samples were assessed for mortality 5 days after infestation.

[11] = test system: Spodoptera littoralis (Egyptian Cotton Leaf Worm); assay: Example B18: Spodoptera littoralis, compound in agar absorbed by lettuce roots, mortality, anti-feedant effect and growth inhibition; conditions: 144 h, test rate of 12.5 ppm, uptake by lettuce roots, Spodoptera eggs, 6 days after infestation, read-out: effect in at least one of the three categories (mortality, anti-feeding, or growth inhibition)
Excerpt: as §3, with “pipette” for “pipette prepared”, “for mortality,” for “for”, “effect and growth inhibition” for “effect”

[12] = test system: Euschistus heros (Neotropical Brown Stink Bug); assay: Example B6: Euschistus heros, sprayed soybean leaves, mortality and growth inhibition; conditions: 120 h, application rate of 200 ppm, N2 nymphs, 5 days after infestation, read-out: effect in at least one of the two categories (mortality or growth inhibition)
Experimental: as §4, with “mortality and growth inhibition in comparison to untreated samples” for “mortality”

[13] = test system: Spodoptera littoralis (Egyptian Cotton Leaf Worm); assay: Example B20: Spodoptera littoralis, compound in agar absorbed by lettuce roots, mortality; conditions: 144 h, test rate of 12.5 ppm, uptake by lettuce roots, Spodoptera eggs, 6 days after infestation
Excerpt: Test compounds were applied by pipette prepared from 10,000 ppm DMSO stock solutions into 24-well plates and mixed with agar. Lettuce seeds were placed onto the agar and the multi well plate was closed by another plate which contained also agar. After 7 days the compound was absorbed by the roots and the lettuce grew into the lid plate. The lettuce leaves were then cut off into the lid plate.
Spodoptera eggs were pipetted through a plastic stencil onto a humid gel blotting paper and the lid plate was closed with it. The samples were assessed for mortality 6 days after infestation.

[14] = test system: Myzus persicae (Green Peach Aphid); assay: Example B8: Myzus persicae, sprayed sunflower leaf discs, mortality; conditions: foliar, 144 h, application rate of 200 ppm, leaf disc spray, aphid population of mixed ages, 6 days after infestation
Experimental: Sunflower leaf discs were placed onto agar in a 24-well microtiter plate and sprayed with aqueous test solutions prepared from 10,000 ppm DMSO stock solutions. After drying, the leaf discs were infested with an aphid population of mixed ages. The samples were assessed for mortality 6 days after infestation.

[15] = test system: Frankliniella occidentalis (Western Flower Thrips); assay: Example B7: Frankliniella occidentalis, sprayed sunflower leaf discs, mortality; conditions: foliar, 168 h, application rate of 200 ppm, population of mixed ages, 7 days after infestation
Experimental: Sunflower leaf discs were placed on agar in 24-well microtiter plates and sprayed with aqueous test solutions prepared from 10,000 DMSO stock solutions. After drying the leaf discs were infested with a Frankliniella population of mixed ages. The samples were assessed for mortality 7 days after infestation.

[16] = test system: Plutella xylostella (Diamond Back Moth); assay: Example B10: Plutella xylostella, treated artificial diet, growth inhibition; conditions: 120 h, application rate of 200 ppm, L2 larvae, 5 days after infestation
Experimental: as §2, with “for” for “for mortality and”, “infestation. Control of Plutella xylostella by a test sample is given when the growth inhibition is higher than the untreated sample.” for “infestation.”

CCS(=O)(=O)c1cc(-c2ccc(C(F)(F)F)cc2)ccc1-c1cn2cnc(C(F)(F)F)cc2n1 [Compound P2, 2-[2-ethylsulfonyl-4-[4-(trifluoromethyl)phenyl]phenyl]-7-(trifluoromethyl)imidazo[1,2-c]pyrimidine]
≥ 80%: pest or weed control at 200 ppm [1] | pest or weed control at 200 ppm [2] | percent effect (mortality or growth inhibition) at 200 ppm [3] | percent effect (mortality or growth inhibition) at 200 ppm [4] | percent control (mortality, anti-feedant effect or growth inhibition) at 200 ppm [5] | mortality at 200 ppm [6] | mortality at 200 ppm [7] | mortality at 200 ppm [8]

CCS(=O)(=O)c1cc(-c2ccc(C(F)(F)F)cc2)cnc1-c1cn2cnc(C(F)(F)F)cc2n1 [Compound P6, 2-[3-ethylsulfonyl-5-[4-(trifluoromethyl)phenyl]-2-pyridyl]-7-(trifluoromethyl)imidazo[1,2-c]pyrimidine]
≥ 80%: pest or weed control at 200 ppm [1] | pest or weed control at 12.5 ppm [9] | pest or weed control at 200 ppm [2] | mortality at 200 ppm [10] | percent effect (mortality, anti-feeding or growth inhibition) at 12.5 ppm [11] | percent effect (mortality or growth inhibition) at 200 ppm [12] | mortality at 12.5 ppm [13] | percent effect (mortality or growth inhibition) at 200 ppm [3] | percent effect (mortality or growth inhibition) at 200 ppm [4] | percent control (mortality, anti-feedant effect or growth inhibition) at 200 ppm [5] | mortality at 200 ppm [6] | mortality at 200 ppm [7] | mortality at 200 ppm [8]

CCS(=O)(=O)c1cc(-c2ccc(F)cc2F)cnc1-c1cn2cnc(C(F)(F)F)cc2n1 [Compound P11]
≥ 80%: pest or weed control at 200 ppm [1] | pest or weed control at 12.5 ppm [9] | mortality at 200 ppm [10] | percent effect (mortality, anti-feeding or growth inhibition) at 12.5 ppm [11] | mortality at 200 ppm [14] | percent effect (mortality or growth inhibition) at 200 ppm [12] | mortality at 12.5 ppm [13] | percent effect (mortality or growth inhibition) at 200 ppm [3] | percent effect (mortality or growth inhibition) at 200 ppm [4] | mortality at 200 ppm [15] | percent control (mortality, anti-feedant effect or growth inhibition) at 200 ppm [5] | mortality at 200 ppm [6] | mortality at 200 ppm [7] | mortality at 200 ppm [8]

CCS(=O)(=O)c1cc(-n2ccc(C(F)(F)F)n2)ccc1-c1cn2cnc(C(F)(F)F)cc2n1 [Compound P1, 2-[2-ethylsulfonyl-4-[3-(trifluoromethyl)pyrazol-1-yl]phenyl]-7-(trifluoromethyl)imidazo[1,2-c]pyrimidine]
≥ 80%: pest or weed control at 200 ppm [1] | pest or weed control at 12.5 ppm [9] | pest or weed control at 200 ppm [2] | mortality at 200 ppm [10] | inhibition at 200 ppm [16] | percent effect (mortality, anti-feeding or growth inhibition) at 12.5 ppm [11] | mortality at 200 ppm [14] | percent effect (mortality or growth inhibition) at 200 ppm [12] | mortality at 12.5 ppm [13] | percent effect (mortality or growth inhibition) at 200 ppm [3] | percent effect (mortality or growth inhibition) at 200 ppm [4] | percent control (mortality, anti-feedant effect or growth inhibition) at 200 ppm [5] | mortality at 200 ppm [6] | mortality at 200 ppm [7] | mortality at 200 ppm [8]

CCS(=O)(=O)c1cc(-c2ccc(Cl)cc2)ccc1-c1cn2cnc(C(F)(F)F)cc2n1 [Compound P3]
≥ 80%: pest or weed control at 200 ppm [1] | percent effect (mortality or growth inhibition) at 200 ppm [3] | percent control (mortality, anti-feedant effect or growth inhibition) at 200 ppm [5] | mortality at 200 ppm [6] | mortality at 200 ppm [8]

CCS(=O)(=O)c1cc(-c2ccc(OC(F)(F)F)cc2)cnc1-c1cn2cnc(C(F)(F)F)cc2n1 [Compound P12]
≥ 80%: pest or weed control at 200 ppm [1] | pest or weed control at 12.5 ppm [9] | pest or weed control at 200 ppm [2] | mortality at 200 ppm [10] | percent effect (mortality, anti-feeding or growth inhibition) at 12.5 ppm [11] | percent effect (mortality or growth inhibition) at 200 ppm [12] | mortality at 12.5 ppm [13] | percent effect (mortality or growth inhibition) at 200 ppm [3] | percent effect (mortality or growth inhibition) at 200 ppm [4] | percent control (mortality, anti-feedant effect or growth inhibition) at 200 ppm [5] | mortality at 200 ppm [6] | mortality at 200 ppm [7] | mortality at 200 ppm [8]
